Test results published in ChEMBL document CHEMBL1201862, “PubChem BioAssay data set” (2004).
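Following 48 hours of exposure in 96-well plates, responses at five concentrations were used to interpolate endpoints linearly. GI50 is the concentration that inhibits growth by half.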 Activity calls are given as the source filed them. Cut-off read from the data, not from the text of the source: active = GI50 up to about 1.1 µM and inactive = higher.

Key:
Test in all cases: NCI tumour cell line growth inhibition, 48 h
OVCAR-5 = system: OVCAR-5
NCI/ADR-RES = system: NCI/ADR-RES
M14 = system: M14
HOP-62 = system: HOP-62
BT-549 = system: BT-549
HCC 2998 = system: HCC 2998
HT-29 = system: HT-29
SR = system: SR
NCI-H522 = system: NCI-H522
SNB-75 = system: SNB-75
EKVX = system: EKVX
PC-3 = system: PC-3
IGROV-1 = system: IGROV-1
U-251 = system: U-251
SF-295 = system: SF-295
SF-268 = system: SF-268
T47D = system: T47D
LOX IMVI = system: LOX IMVI
A498 = system: A498

Measured: GI50

CC(=O)Nc1ccc2nc(-c3cccc(Cl)c3)cc(O)c2c1
inactive: OVCAR-5 68.4 µM | NCI/ADR-RES > 100 µM | M14 11.1 µM | HOP-62 65 µM | BT-549 15.4 µM | HCC 2998 8.38 µM | HT-29 11.2 µM | SR 5.37 µM | NCI-H522 3.1 µM | SNB-75 4.4 µM | EKVX > 100 µM | PC-3 4.72 µM | IGROV-1 13.4 µM | U-251 3.65 µM

O=C(c1ccccc1)c1ccc2[nH]c(-c3c(Cl)c(Cl)c(Cl)c(Cl)c3C(=O)N/N=C/c3ccccc3)nc2c1
inactive: OVCAR-5 36.9 µM | NCI/ADR-RES 19.8 µM | M14 31.2 µM | HOP-62 23.1 µM | BT-549 28.5 µM | HT-29 30.8 µM | NCI-H522 18.1 µM | SNB-75 17.9 µM | EKVX 18.4 µM | SF-295 22.4 µM | PC-3 24.1 µM | SF-268 27.5 µM | IGROV-1 14.9 µM | T47D 14.7 µM | U-251 35.8 µM | LOX IMVI 26.4 µM

O=c1c(NCc2ccccc2)c(C2(c3ccccc3F)SCCCS2)c1=O
inactive: OVCAR-5 > 100 µM | NCI/ADR-RES > 100 µM | M14 > 100 µM | HOP-62 > 100 µM | BT-549 > 100 µM | HT-29 > 100 µM | A498 82.8 µM | NCI-H522 23.7 µM | SNB-75 > 100 µM | EKVX > 100 µM | SF-295 > 100 µM | PC-3 > 100 µM | SF-268 > 100 µM | IGROV-1 > 100 µM | T47D > 100 µM | U-251 > 100 µM | LOX IMVI > 100 µM

COC(=O)/C=C1/OC(c2ccccc2)=C(C)C1=O
inactive: OVCAR-5 16 µM | NCI/ADR-RES 20.9 µM | M14 11.7 µM | HOP-62 16 µM | BT-549 2.86 µM | HCC 2998 16.6 µM | HT-29 1.98 µM | SR 2.61 µM | A498 18.7 µM | NCI-H522 12.6 µM | SNB-75 23.6 µM | EKVX 17.9 µM | SF-295 13.3 µM | SF-268 17.9 µM | IGROV-1 14.1 µM | T47D 20.1 µM | U-251 14.1 µM | LOX IMVI 1.28 µM

Nc1cc(N2CCCC2)nc(=O)n1Cc1ccccc1
inactive: OVCAR-5 > 100 µM | NCI/ADR-RES > 100 µM | M14 > 100 µM | HOP-62 > 100 µM | BT-549 > 100 µM | HT-29 > 100 µM | SR > 100 µM | NCI-H522 > 100 µM | SNB-75 > 100 µM | EKVX > 100 µM | SF-295 > 100 µM | PC-3 > 100 µM | SF-268 39.5 µM | IGROV-1 > 100 µM | U-251 > 100 µM | LOX IMVI > 100 µM

CCOC(=O)c1c(N)sc2c1C(C(=O)OCC)CCCC2 (centres undefined)
inactive: OVCAR-5 > 100 µM | M14 > 100 µM | HOP-62 > 100 µM | BT-549 > 100 µM | HCC 2998 76.9 µM | HT-29 > 100 µM | SR 34.6 µM | A498 20.2 µM | SNB-75 > 100 µM | EKVX 85.3 µM | PC-3 32.9 µM | IGROV-1 > 100 µM | T47D 22.5 µM | U-251 66.5 µM

[O-][S+](Nc1ccccc1)c1ccc(Cl)c(Cl)c1 (centres undefined)
inactive: NCI/ADR-RES 37.5 µM | M14 73.5 µM | HOP-62 26.1 µM | BT-549 17 µM | HCC 2998 27.3 µM | HT-29 > 100 µM | SR 26.4 µM | NCI-H522 21.9 µM | EKVX 47.3 µM | SF-295 24.2 µM | SF-268 26.4 µM | IGROV-1 21.5 µM | T47D 10.3 µM | U-251 15.9 µM | LOX IMVI 38.8 µM

C#CC(O)/C=C/C(O)CCCC(O)CC#CC(O)C#CCCCCC(O)/C=C/CCCCCC(=O)CCCCCCCCCCCCCC(O)C(O)C#CC(=O)O (centres undefined)
inactive: OVCAR-5 > 25 µM | NCI/ADR-RES > 25 µM | M14 > 25 µM | HOP-62 > 25 µM | HCC 2998 > 25 µM | HT-29 > 25 µM | SR 7.13 µM | A498 > 25 µM | NCI-H522 4.88 µM | SNB-75 > 25 µM | EKVX > 25 µM | SF-295 > 25 µM | PC-3 > 25 µM | SF-268 > 25 µM | IGROV-1 4.13 µM | T47D > 25 µM | U-251 > 25 µM | LOX IMVI 4.6 µM

CC(NC(=O)C(N)CC(=O)O)C(=O)OC12CC3CC(CC(C3)C1)C2 (centres undefined)
inactive: OVCAR-5 > 100 µM | NCI/ADR-RES > 100 µM | M14 > 100 µM | HCC 2998 > 100 µM | HT-29 > 100 µM | SR > 100 µM | NCI-H522 > 100 µM | SNB-75 > 100 µM | EKVX > 100 µM | PC-3 > 100 µM | SF-268 > 100 µM | IGROV-1 > 100 µM | U-251 > 100 µM | LOX IMVI > 100 µM

NC(N)=NCc1ccc2c(c1)OCO2
inactive: OVCAR-5 > 100 µM | NCI/ADR-RES > 100 µM | M14 > 100 µM | HOP-62 > 100 µM | HCC 2998 > 100 µM | HT-29 72.9 µM | SR > 100 µM | A498 28.2 µM | NCI-H522 > 100 µM | SNB-75 > 100 µM | EKVX > 100 µM | SF-295 67 µM | PC-3 > 100 µM | SF-268 > 100 µM | IGROV-1 > 100 µM | T47D > 100 µM | U-251 > 100 µM | LOX IMVI > 100 µM

CCOC(=O)c1nc2ccc(C(F)(F)F)cc2nc1Oc1ccc(OC)cc1
inactive: OVCAR-5 > 100 µM | NCI/ADR-RES > 100 µM | M14 > 100 µM | HOP-62 > 100 µM | BT-549 > 100 µM | HT-29 > 100 µM | A498 > 100 µM | SNB-75 > 100 µM | EKVX 55.2 µM | SF-295 > 100 µM | PC-3 > 100 µM | SF-268 > 100 µM | IGROV-1 > 100 µM | T47D > 100 µM | U-251 > 100 µM | LOX IMVI > 100 µM

O=C1CCCCC/C1=C\c1ccc(F)cc1
inactive: OVCAR-5 > 100 µM | M14 > 100 µM | HOP-62 > 100 µM | BT-549 99.1 µM | HCC 2998 > 100 µM | HT-29 > 100 µM | SR 47.6 µM | A498 > 100 µM | NCI-H522 51.5 µM | SNB-75 > 100 µM | EKVX > 100 µM | SF-295 > 100 µM | PC-3 > 100 µM | SF-268 > 100 µM | IGROV-1 > 100 µM | T47D > 100 µM | U-251 98.6 µM | LOX IMVI 94 µM
